Reference: US8889704B2 (Array BioPharma Inc., priority 2011, dated 2014)
pIC50: −log10 of the molar value. Structures can show the parent of a compound that is named as a salt.

Assays:
Assay type in all cases: biochemical
PIM-1 = PIM-1 (Homo sapiens, UniProt P11309); experiment: Enzyme PIM-1 Assay ([33P]ATP incorporation into PIM2tide, filter plate); settings: averaged IC50; 35 μM ATP, 7.5 μM PIM2tide, 0.25 nM PIM-1, 60 min at 22° C.
Summary of the method: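 Ten-point, 3-fold dilution series (10 μM top, 2% DMSO final) tested for inhibition of 33P transfer from 35 μM ATP to 7.5 μM PIM2tide by 0.25 nM PIM-1. Reaction 60 min, 22 °C, pH 7.4 MOPS/MgCl2 buffer; phosphocellulose capture, scintillation counting, IC50 where fitted POC equals 50.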

[1] = target: T1, GST-tagged recombinant full-length human Pim-2 (Homo sapiens, UniProt Q9P1W9); experiment: PIM-2 Assay (as Example A); settings: averaged IC50; 4 μM ATP, 1.0 μM PIM2tide, 1.5 nM Pim-2
T1 construct: GST-tagged recombinant full-length human Pim-2; GST
T1 sequence (Q9P1W9 whole entry): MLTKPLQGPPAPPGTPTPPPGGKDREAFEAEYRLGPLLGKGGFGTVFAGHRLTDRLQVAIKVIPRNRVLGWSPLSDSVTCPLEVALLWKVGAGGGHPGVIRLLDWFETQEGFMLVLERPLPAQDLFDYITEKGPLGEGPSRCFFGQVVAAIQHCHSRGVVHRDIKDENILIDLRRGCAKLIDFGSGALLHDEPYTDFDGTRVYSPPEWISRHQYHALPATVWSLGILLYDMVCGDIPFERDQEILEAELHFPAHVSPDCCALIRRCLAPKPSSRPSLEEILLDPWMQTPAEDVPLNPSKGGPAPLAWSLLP
Summary of the method: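 IC50 was derived by 4-parameter logistic fitting of percent-of-control data over a 10-point, 3-fold series (highest 10 μM, 2% DMSO). Reactions held 1.5 nM GST-Pim-2 (full-length, human), 4 μM [γ-33P]ATP and 1.0 μM PIM2tide for 60 min at 22 °C, pH 7.4; 33P-peptide captured on P81 filters.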

recombinant rat PIM-3 = recombinant rat PIM-3 (Rattus norvegicus, UniProt O70444); experiment: PIM-3 Assay (as Example A); settings: averaged IC50; 30 μM ATP, 3.75 μM PIM2tide, 0.5 nM PIM-3
Summary of the method: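 33P incorporation from 30 μM [γ-33P]ATP into 3.75 μM PIM2tide by 0.5 nM rat PIM-3, 60 min at 22 °C in pH 7.4 MOPS buffer, read by P81 filter capture and scintillation counting. Compounds tested in 3-fold dilutions up to 10 μM final, 2% DMSO; percent-of-control data fitted by 4-parameter logistic for IC50.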

Sequence of PIM-1 (P11309 whole entry, species assumed): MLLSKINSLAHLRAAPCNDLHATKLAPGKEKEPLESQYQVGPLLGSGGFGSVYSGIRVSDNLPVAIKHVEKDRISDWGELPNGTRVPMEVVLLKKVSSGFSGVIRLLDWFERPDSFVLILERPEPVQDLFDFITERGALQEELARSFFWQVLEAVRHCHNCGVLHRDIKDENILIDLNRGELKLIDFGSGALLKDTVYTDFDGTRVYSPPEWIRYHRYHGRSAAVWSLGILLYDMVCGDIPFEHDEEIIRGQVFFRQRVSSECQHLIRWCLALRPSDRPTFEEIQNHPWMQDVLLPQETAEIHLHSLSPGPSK

Row | Compound | pIC50 (PIM-1) | pIC50 [1] | pIC50 (recombinant rat PIM-3)
1 | CCOc1cc2nc(-c3nnc4ccc([C@H](N5CC[C@@H](N)C5)C(F)(F)F)cn34)ccc2cc1F [Example 292, (R)-1-((S)-1-(3-(7-ethoxy-6-fluoroquinolin-2-yl)-[1,2,4]triazolo[4,3-a]pyridin-6-yl)-2,2,2-trifluoroethyl)pyrrolidin-3-amine hydrochloride] | 9.19 | 7.17 | 8.96
2 | CCOc1cc2nc(-c3nnc4ccc([C@H](N5CC[C@@](C)(N)C5)C(F)(F)F)cn34)ccc2cc1F [Example 294, (R)-1-((S)-1-(3-(7-ethoxy-6-fluoroquinolin-2-yl)-[1,2,4]triazolo[4,3-a]pyridin-6-yl)-2,2,2-trifluoroethyl)-3-methylpyrrolidin-3-amine hydrochloride] | 9.28 | 7.03 | 9.15
3 | CCOc1cc2nc(-c3nnc4ccc([C@H](N5CC[C@@H](CN)C5)C(F)(F)F)cn34)ccc2cc1F [Example 295, ((S)-1-((S)-1-(3-(7-ethoxy-6-fluoroquinolin-2-yl)-[1,2,4]triazolo[4,3-a]pyridin-6-yl)-2,2,2-trifluoroethyl)pyrrolidin-3-yl)methanamine hydrochloride] | 8.59 | 6.28 | 7.92
4 | CCOc1cc2nc(-c3nnc4ccc([C@H](N5CC[C@H](CN)C5)C(F)(F)F)cn34)ccc2cc1F [Example 296, ((R)-1-((S)-1-(3-(7-ethoxy-6-fluoroquinolin-2-yl)-[1,2,4]triazolo[4,3-a]pyridin-6-yl)-2,2,2-trifluoroethyl)pyrrolidin-3-yl)methanamine hydrochloride] | 8.82 | < 6.00 | 7.92
5 | CC(C)(O)COc1ccc2ccc(-c3nnc4ccc([C@H](N5CC[C@](C)(N)C5)C(F)(F)F)cn34)nc2c1 [Example 297, 1-(2-(6-((S)-1-((S)-3-amino-3-methylpyrrolidin-1-yl)-2,2,2-trifluoroethyl)-[1,2,4]triazolo[4,3-a]pyridin-3-yl)quinolin-7-yloxy)-2-methylpropan-2-ol dihydrochloride] | 9.74 | 7.70 | 9.70
6 | COCCc1ccc2ccc(-c3nnc4ccc([C@H](N5CC[C@](C)(N)C5)C(F)(F)F)cn34)nc2c1 [Example 300, (S)-3-methyl-1-((S)-2,2,2-trifluoro-1-(3-(7-(2-methoxyethyl)quinolin-2-yl)-[1,2,4]triazolo[4,3-a]pyridin-6-yl)ethyl)pyrrolidin-3-amine dihydrochloride] | 9.44 | 7.19 | 9.40

Further compounds by rising pIC50 (PIM-1), results first:

Row | pIC50 (PIM-1) | pIC50 [1] | pIC50 (recombinant rat PIM-3) | Compound
7 | 9.26 | 6.16 | 8.80 | CCOc1cc2nc(-c3nnc4ccc([C@@H](N5C[C@@H](N)[C@H](OC)C5)C(F)(F)F)cn34)ccc2cc1F [Example 299, (3R,4R)-1-((R)-1-(3-(7-ethoxy-6-fluoroquinolin-2-yl)-[1,2,4]triazolo[4,3-a]pyridin-6-yl)-2,2,2-trifluoroethyl)-4-methoxypyrrolidin-3-amine dihydrochloride]
8 | 9.40 | 6.33 | 8.96 | CCOc1cc2nc(-c3nnc4ccc([C@@H](N5CC[C@@](C)(N)C5)C(F)(F)F)cn34)ccc2cc1F [Example 293, (R)-1-((R)-1-(3-(7-ethoxy-6-fluoroquinolin-2-yl)-[1,2,4]triazolo[4,3-a]pyridin-6-yl)-2,2,2-trifluoroethyl)-3-methylpyrrolidin-3-amine hydrochloride]
9 | 9.57 | 7.23 | 9.40 | COCCOc1cc2nc(-c3nnc4ccc([C@H](N5CC[C@](C)(N)C5)C(F)(F)F)cn34)ccc2cc1F [Example 298, (S)-3-methyl-1-((S)-2,2,2-trifluoro-1-(3-(6-fluoro-7-(2-methoxyethoxy)quinolin-2-yl)-[1,2,4]triazolo[4,3-a]pyridin-6-yl)ethyl)pyrrolidin-3-amine dihydrochloride]
